Patent publication US7879914B2, “Methods for treating viral infections using polyamine analogs” (Pathlogica LLC, priority 2005, dated 2011)

Tested on: SIVmac251
Assay: SIVmac251-infected, CD8-depleted animals, 250 mg/m^2 on alternate weeks
Type: in vivo, rhesus macaque
Experimental: These experiments once again used SIVmac251-infected, CD8-depleted animals, and again treatment was initiated at five days p.i. For this experiment, however, 250 mg/m^2 PA-001 (MGBG) was used and the animals were treated on alternate weeks, as is done in humans. Two animals were SIVmac251-infected, CD8-depleted, and PA-001 treated, and two were not drug treated, SIVmac251-infected, CD8-depleted controls. As of the time this study was conducted, the treated animals had received four doses of PA-001 and lived past day 55. In contrast, the non-treated animals developed AIDS and SIV encephalitis (SIVE) and in fact, one of the CD8-depleted, non-treated animals had died of AIDS and SIVE and the second non PA-001 treated animal was scheduled for sacrifice due to AIDS.
SIV-infected, CD8-depleted animals without PA-001 treatment (EJ02 and EL95) had higher counts of total monocytes (top) and the CD14+CD16+ subset (bottom). In fact, one of the untreated animals (EJ02) died of AIDS and SIVE at day 55 p.i.

CC(/C=N/NC(=N)N)=N\NC(=N)N [MGBG]
CD14+ and CD16+ monocyte populations (detailed flow cytometry): significant decreases
survival of treated animals (four doses of 250 mg/m^2, alternate weeks): > 55 days
absolute numbers of total monocytes (vs non-treated animals, FIG. 11): lower absolute numbers
